Source: article PMC7363588, “Mapping of the FGF14:Nav1.6 complex interface reveals FLPK as a functionally active peptide modulating excitability” (Physiological Reports, 2020)
“And” between values parts separate entries of the source, which are not always exact repeats. Identical values can stand only once. “Also recorded” adds a separate entry of the source. Peptide text beside a SMILES is read from it.

Biological target: T1, Nav1.6 (Homo sapiens, UniProt Q9UQD0)
T1 construct: expressed in transfected cells
T1 sequence (Q9UQD0 whole entry): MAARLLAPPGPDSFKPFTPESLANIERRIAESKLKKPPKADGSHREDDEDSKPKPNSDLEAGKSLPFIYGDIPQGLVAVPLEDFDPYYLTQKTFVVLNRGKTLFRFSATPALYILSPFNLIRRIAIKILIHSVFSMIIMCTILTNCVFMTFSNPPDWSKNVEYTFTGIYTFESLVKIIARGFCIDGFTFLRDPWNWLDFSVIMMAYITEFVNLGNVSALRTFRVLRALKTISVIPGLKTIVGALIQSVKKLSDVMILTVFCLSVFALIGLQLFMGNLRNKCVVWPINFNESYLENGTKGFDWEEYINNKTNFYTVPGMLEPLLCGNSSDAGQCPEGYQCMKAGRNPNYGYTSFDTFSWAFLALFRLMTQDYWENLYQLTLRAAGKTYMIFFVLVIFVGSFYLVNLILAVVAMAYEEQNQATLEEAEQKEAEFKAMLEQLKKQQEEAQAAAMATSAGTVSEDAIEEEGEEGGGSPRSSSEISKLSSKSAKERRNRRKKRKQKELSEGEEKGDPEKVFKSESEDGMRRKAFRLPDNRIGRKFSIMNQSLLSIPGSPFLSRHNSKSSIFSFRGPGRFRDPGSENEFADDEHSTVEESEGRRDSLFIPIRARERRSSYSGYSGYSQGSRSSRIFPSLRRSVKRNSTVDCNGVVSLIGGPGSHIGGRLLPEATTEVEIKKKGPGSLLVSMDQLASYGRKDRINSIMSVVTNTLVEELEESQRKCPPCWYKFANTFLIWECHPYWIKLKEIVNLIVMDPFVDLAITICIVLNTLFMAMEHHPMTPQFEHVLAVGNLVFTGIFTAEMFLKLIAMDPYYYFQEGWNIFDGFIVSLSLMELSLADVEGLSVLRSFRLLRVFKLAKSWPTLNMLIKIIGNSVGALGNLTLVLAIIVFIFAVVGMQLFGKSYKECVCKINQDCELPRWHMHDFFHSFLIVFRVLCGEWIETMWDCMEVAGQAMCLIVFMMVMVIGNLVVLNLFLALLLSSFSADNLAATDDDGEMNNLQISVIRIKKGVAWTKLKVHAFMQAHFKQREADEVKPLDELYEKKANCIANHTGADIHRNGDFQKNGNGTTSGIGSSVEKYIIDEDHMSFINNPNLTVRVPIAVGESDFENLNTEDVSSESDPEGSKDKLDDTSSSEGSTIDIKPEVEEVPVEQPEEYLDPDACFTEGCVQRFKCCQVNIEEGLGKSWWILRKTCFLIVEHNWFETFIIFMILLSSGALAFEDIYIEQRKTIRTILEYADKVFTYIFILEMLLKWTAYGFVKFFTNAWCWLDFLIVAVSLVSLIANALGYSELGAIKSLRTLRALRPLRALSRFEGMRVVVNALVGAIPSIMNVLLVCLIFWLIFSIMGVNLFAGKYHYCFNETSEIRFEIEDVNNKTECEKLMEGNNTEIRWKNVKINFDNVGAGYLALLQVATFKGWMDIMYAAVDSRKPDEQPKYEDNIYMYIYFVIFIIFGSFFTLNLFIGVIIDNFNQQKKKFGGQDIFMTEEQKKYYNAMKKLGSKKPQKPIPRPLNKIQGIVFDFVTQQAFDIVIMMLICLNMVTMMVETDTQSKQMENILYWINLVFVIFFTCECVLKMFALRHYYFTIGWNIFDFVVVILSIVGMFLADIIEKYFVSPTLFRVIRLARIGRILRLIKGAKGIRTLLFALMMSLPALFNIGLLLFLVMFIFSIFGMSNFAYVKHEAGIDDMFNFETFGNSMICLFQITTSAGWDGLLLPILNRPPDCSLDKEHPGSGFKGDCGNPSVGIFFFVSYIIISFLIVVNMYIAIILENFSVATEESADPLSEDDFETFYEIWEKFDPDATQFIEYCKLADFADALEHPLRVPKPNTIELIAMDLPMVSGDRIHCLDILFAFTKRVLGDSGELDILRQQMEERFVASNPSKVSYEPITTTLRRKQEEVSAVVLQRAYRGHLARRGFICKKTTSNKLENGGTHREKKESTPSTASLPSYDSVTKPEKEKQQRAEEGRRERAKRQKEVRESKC
Assay: Whole-cell patch-clamp, HEK-Nav1.6 cells expressing GFP
Type: cell-based
Conditions: 50 μM FLPK
Procedure: HEK293 cells were maintained in DMEM and F‐12 (Invitrogen, Carlsbad, CA), supplemented with 0.05% glucose, 0.5 mM pyruvate, 10% fetal bovine serum, 100 units/ml penicillin, and 100 µg/ml streptomycin (Invitrogen), and incubated at 37 °C with 5% CO2. HEK293 cells stably expressing the human Nav1.6 channel (hereafter referred to as HEK‐Nav1.6 cells) were maintained similarly except for the addition of 500 μg/ml G418 (Invitrogen) to maintain stable Nav1.6 expression. Cells were transfected at 80%–90% confluence with equal amount (1 μg each) of plasmid pairs using Lipofectamine 2000 (Invitrogen) according to manufacturer's instructions. HEK‐Nav1.6 cells were washed and replated at very low density prior to electrophysiological recordings (Ali et al., 2016, 2018; Scala et al., 2018; Wadsworth et al., 2019).
HEK‐Nav1.6 cells transfected with GFP or FGF14‐GFP were plated at low density on glass cover slips for 3–4 hr and subsequently transferred to the recording chamber. Recordings were performed at room temperature (20–22°C) 24 hr posttransfection using a MultiClamp 700B amplifier (Molecular Devices, Sunnyvale, CA). The composition of recording solutions consisted of the following salts; extracellular (mM): 140 NaCl, 3 KCl, 1 MgCl2, 1 CaCl2, 10 HEPES, 10 glucose, pH 7.3; intracellular (mM): 130 CH3O3SCs, 1 EGTA, 10 NaCl, 10 HEPES, pH 7.3. Membrane capacitance and series resistance were estimated by the dial settings on the amplifier and compensated for electronically by 70%–75%. Data were acquired at 20 kHz and filtered at 5 kHz prior to digitization and storage. All experimental parameters were controlled by Clampex 9.2 software (Molecular Devices) and interfaced to the electrophysiological equipment using a Digidata 1,200 analog‐digital interface (Molecular Devices). Voltage‐dependent inward currents for HEK‐Nav1.6 cells were evoked by depolarization to test potentials between −100 mV and +60 mV from a holding potential of −70 mV followed by a voltage prestep pulse of −120 mV (Nav1.6). Steady‐state (fast) inactivation of Nav channels was measured with a paired‐pulse protocol. From the holding potential, cells were stepped to varying test potentials between −120 mV (Nav1.6) and +20 mV (prepulse) prior to a test pulse to −20 mV.
Current densities were obtained by dividing Na^+ current (INa) amplitude by membrane capacitance. Current–voltage relationships were generated by plotting current density as a function of the […]. Conductance (GNa) was calculated by the following equation: GNa=INa/Vm‐Erev where INa ^+ is the current amplitude at voltage Vm, and Erev is the Na^+ reversal potential.
Activation curves were derived by plotting normalized GNa as a function of test potential and fitted using the Boltzmann equation: GNa/GNa,Max=1/1+eVa‐Em/k where GNa,Max is the maximum conductance, Va is the membrane potential of half‐maximal activation, Vm is the membrane voltage and k is the slope factor.
The membrane potential of half‐maximal activation, Em is the membrane voltage and k is the slope factor. For steady‐state inactivation, normalized current amplitude (INa/INa,Max) at the test potential was plotted as a function of prepulse potential (Vm) and fitted using the Boltzmann equation: INa/INa,Max=1/1+e‐Vh‐Em/k where Vh is the potential of half‐maximal inactivation, Em is the membrane voltage, and k is the slope factor.
To test whether FLKP had any modulatory effects on Nav1.6‐mediated Na^+ currents, we used whole‐cell patch‐clamp electrophysiology in HEK293 cells stably expressing Nav1.6 (HEK‐Nav1.6) that were transiently transfected with either GFP (HEK‐Nav1.6 GFP) or FGF14‐1b‐GFP (HEK‐Nav1.6 FGF14‐GFP); each group was either treated with FLPK (50 μM from a stock solution dissolved in DMSO) or 0.1% DMSO alone (vehicle) (Figure 5a‐c). […]

CC(=O)N[C@@H](Cc1ccccc1)C(=O)N[C@@H](CC(C)C)C(=O)N1CCC[C@H]1C(=O)N[C@@H](CCCCN)C(N)=O [FLPK] (Ac-FLPK-NH2)
effect on Nav1.6 currents without FGF14 (HEK-Nav1.6 GFP vs 0.1% DMSO): not statistically different; also recorded: no measurable effects in cells expressing Nav1.6 alone | Tau (τ), decay time constant of I Na (HEK-Nav1.6 GFP, at −10 mV, mean ± SEM (n = 12), DMSO 1.0 ± 0.08, p = .0495): 0.8 ± 0.03 ms and 0.8 ± 0.03 (12)r ms | Peak density (I Na) (HEK-Nav1.6 GFP, at −10 mV, mean ± SEM (n = 14), DMSO −58.6 ± 13.9 (Table 3)): −80.8 ± 12.2 pA/pF and −80.8 ± 12.2 (14) pA/pF | Kinact (HEK-Nav1.6 GFP, mean ± SEM (n = 10), DMSO 5.8 ± 0.4): 6.1 ± 0.5 (10) mV | Steady-state Inactivation (V1/2) (HEK-Nav1.6 GFP, mean ± SEM (n = 10), DMSO −58.9 ± 0.8): −59.3 ± 1.9 (10) mV | Kact (HEK-Nav1.6 GFP, mean ± SEM (n = 12), DMSO 4.3 ± 0.2): 3.9 ± 0.3 (12) mV | Activation (V1/2) (HEK-Nav1.6 GFP, mean ± SEM (n = 12), DMSO −21.8 ± 1.3): −20.5 ± 1.2 (12) mV
